Experimental data: US7897772B2, “Acid addition salt of irinotecan” (priority 2004, dated 2011)
Structures can show the parent of a compound that is named as a salt.

Key:
[1] = Three-month room-temperature storage of 20, 30 and 40 mg/mL aqueous solutions, visual observation (Example 5); type: physicochemical; conditions: three months
Source text: The filtrate was allowed to stand at room temperature for three months, and the aqueous solution after storage was visually observed so as to evaluate the solution state.

[2] = Peroral absorbability in beagles: plasma irinotecan level and pharmacokinetic analysis (Example 6); type: in vivo
Source text: To each beagle, a solid chow (about 350 g) was fed once a day at around 3 p.m., and the unconsumed chow was removed at around 9 a.m. on the following day, except that on the day before the day of administration the unconsumed chow was removed about two hours after feeding. On the day of administration, blood was drawn three hours after administration and the chow was fed after blood collection. On the day after the day of administration, the unconsumed chow was removed at 9 a.m.
After administration, tap water (about 20 mL) was fed to the mouth of the beagle by use of an injection syringe.
The thus-collected blood samples were dispensed into 1.5-mL tubes, to which heparin sodium (20 μL, 20 units) had been added in advance and which had been dried under nitrogen flow (tubes employed for the first administration were not dried). The samples were centrifuged (4° C., about 13,000×g, one minute) to thereby obtain plasma.
The lower quantification limit was […] plasma.
Non-compartmental analysis of the obtained data was performed by use of a WinNonlin Ver4.1. Data of the following pharmacokinetic parameters were obtained.
Final phase half-time (T1/2),
Time to reach maximum plasma level (Tmax),
Maximum plasma level (Cmax),
Area under time-level curve to infinite time (AUC0-inf),
Bioavailability (BA), wherein
Mean absorption time (MAT), wherein
MAT(h)=(mean residence time (MRT0-inf) after oral administration)−(mean residence time (MRT0-inf) after intravenous injection).

[3] = Dissolution of irinotecan acid addition salts in water at 100 mg/mL at room temperature and state of the solution after 6 days of stirring (Example 1); type: physicochemical; conditions: for State of the Solution after Day 6: 100 mg/mL aqueous solution, membrane-filtered, stirred at room temperature (25° C.) for 6 days, visually observed; for Dissolution of the salt in water at room temperature: salt content adjusted to 100 mg/mL, no heating
Description: To an aqueous suspension of irinotecan (1-ethyl-10-[4-(1-piperidino)-1-piperidino]carbonyloxycamptothecin) produced through the method disclosed in Patent Document 1, each acid species was added, to thereby produce a corresponding irinotecan acid addition salt. The irinotecan acid addition salt content was adjusted to 100 mg/mL. […] Each of the aqueous solutions employing sulfuric acid, phosphoric acid methanesulfonic acid, citric acid, maleic acid, and succinic acid, respectively, was filtered by a membrane filter, and the filtrate was stirred at room temperature (25° C.). After continuous stirring for 6 days, the aqueous solution was visually observed so as to evaluate the state of the solution.

[4] = Dissolution of 100 mg/mL salt suspensions on heating and later crystal deposition at 25° C. (Example 2); type: physicochemical; conditions: 100 mg/mL, stirred at 100° C. for 30 minutes
Description: The thus-produced irinotecan nitric acid addition salt solution was stirred at 25° C. After stirring of the solution for about 42 hours, crystals of the irinotecan nitric acid addition salt were deposited.

[5] = peroral, 10 mg/kg as irinotecan
[6] = peroral, 10 mg/kg as irinotecan, mean ± SD (number of samples in parentheses), 10 mg/kg
[7] = peroral, 10 mg/kg as irinotecan, mean ± SD (number of samples in parentheses), listed as irinotecan sulfuric acid addition salt, 10 mg/kg
[8] = peroral capsule, 10 mg/kg as irinotecan, 20 min after administration
[9] = peroral, 10 mg/kg as irinotecan, mean ± SD (number of samples in parentheses), listed as irinotecan methanesulfonic acid addition salt, 10 mg/kg

Compound: CCc1c2c(nc3ccc(OC(=O)N4CCC(N5CCCCC5)CC4)cc13)-c1cc3c(c(=O)n1C2)COC(=O)[C@]3(O)CC.O=P(O)(O)O [Phosphoric acid addition salt (2), irinotecan phosphoric acid salt]
- Solution state after storage ([1]; 20 mg/mL aqueous solution): −
- Solution state after storage ([1]; 30 mg/mL aqueous solution): −
- Solution state after storage ([1]; 40 mg/mL aqueous solution): −

Compound: CCc1c2c(nc3ccc(OC(=O)N4CCC(N5CCCCC5)CC4)cc13)-c1cc3c(c(=O)n1C2)COC(=O)[C@]3(O)CC [irinotecan methanesulfonic acid salt]
- bioavailability ([2]; male, beagle, dog, plasma, po, 10 mg/kg, peroral 10 mg/kg as irinotecan, AUC0-inf oral ÷ AUC0-inf intravenous × 100, read-out: BA (bioavailability)): 61 ± 3.84%

Compound: CCc1c2c(nc3ccc(OC(=O)N4CCC(N5CCCCC5)CC4)cc13)-c1cc3c(c(=O)n1C2)COC(=O)[C@]3(O)CC [Irinotecan sulfuric acid addition salt, irinotecan sulfuric acid salt]
- State of the Solution after Day 6 [3]: No crystal deposited
- Dissolution of the salt in water at room temperature [3]: dissolved in water at room temperature
- concentration at 10 min ([2]; male, beagle, dog, plasma, oral, 10 mg/kg, peroral capsule, 10 mg/kg as irinotecan, 10 min after administration, mean (n=6) ± SD): 126 ± 112 ng/mL
- concentration at 20 min ([2]; male, beagle, dog, plasma, oral, 10 mg/kg, peroral capsule, 10 mg/kg as irinotecan, 20 min after administration, mean (n=6) ± SD): 1560 ± 1550 ng/mL
- concentration at 20 min ([2]; male, beagle, dog, plasma, oral, 10 mg/kg, peroral, 10 mg/kg as irinotecan, twenty minutes after administration): 1560 ng/mL
- BA (bioavailability) ([2]; peroral 10 mg/kg as irinotecan, AUC0-inf oral ÷ AUC0-inf intravenous × 100): 70.14%
- Time after administration at which the plasma level became measurable [2, 5]: 10 min
- Plasma irinotecan level maintained ([2]; peroral, 10 mg/kg as irinotecan, from hour 1 to hour 3): ≥ 3 µg/mL
- AUC0-inf (area under time-level curve to infinite time) [2, 6]: 18.54 ± 1.59(5)^$ μg · h/mL
- Tmax (time to reach maximum plasma level) [2, 6]: 2.33 ± 0.52(6) h
- AUC0-inf (area under time-level curve to infinite time) [2, 7]: 13.54 µg·h/mL
- Cmax (maximum plasma level) [2, 7]: 3670 ng/mL

Compound: CCc1c2c(nc3ccc(OC(=O)N4CCC(N5CCCCC5)CC4)cc13)-c1cc3c(c(=O)n1C2)COC(=O)[C@]3(O)CC [Irinotecan succinic acid addition salt, irinotecan succinic acid salt]
- Dissolution of the salt in water at room temperature ([3]; listed as succinic acid): dissolved in water at room temperature

Compound: CCc1c2c(nc3ccc(OC(=O)N4CCC(N5CCCCC5)CC4)cc13)-c1cc3c(c(=O)n1C2)COC(=O)[C@]3(O)CC.O=[N+]([O-])O [Nitric acid addition salt (2), irinotecan nitric acid salt]
- Solution state after storage ([1]; 20 mg/mL aqueous solution): −
- Solution state after storage ([1]; 30 mg/mL aqueous solution): −
- Solution state after storage ([1]; 40 mg/mL aqueous solution): −

Compound: CCc1c2c(nc3ccc(OC(=O)N4CCC(N5CCCCC5)CC4)cc13)-c1cc3c(c(=O)n1C2)COC(=O)[C@]3(O)CC [Irinotecan fumaric acid addition salt, reference compound]
- Dissolution of the salt in water at room temperature ([3]; listed as fumaric acid): not dissolved in water at room temperature

Compound: Br.CCc1c2c(nc3ccc(OC(=O)N4CCC(N5CCCCC5)CC4)cc13)-c1cc3c(c(=O)n1C2)COC(=O)C3(O)CC (stereo not shown) [Irinotecan hydrobromic acid addition salt, reference compound]
- State of the Solution after Day 6 (footnote symbol: salt not dissolved) ([3]; 100 mg/mL in water at room temperature): *1
- Dissolution of the salt in water at room temperature [3]: not dissolved in water at room temperature
- Dissolution on heating [4]: maintained undissolved

Compound: CCc1c2c(nc3ccc(OC(=O)N4CCC(N5CCCCC5)CC4)cc13)-c1cc3c(c(=O)n1C2)COC(=O)[C@]3(O)CC [Irinotecan citric acid addition salt, irinotecan citric acid salt]
- State of the Solution after Day 6 [3]: No crystal deposited
- Dissolution of the salt in water at room temperature ([3]; listed as citric acid): dissolved in water at room temperature

Compound: CCc1c2c(nc3ccc(OC(=O)N4CCC(N5CCCCC5)CC4)cc13)-c1cc3c(c(=O)n1C2)COC(=O)C3(O)CC.O=S(=O)(O)O (stereo not shown) [Sulfuric acid addition salt (2), irinotecan sulfuric acid salt]
- Solution state after storage ([1]; 20 mg/mL aqueous solution): −
- Solution state after storage ([1]; 30 mg/mL aqueous solution): −
- Solution state after storage ([1]; 40 mg/mL aqueous solution): −

Compound: CCc1c2c(nc3ccc(OC(=O)N4CCC(N5CCCCC5)CC4)cc13)-c1cc3c(c(=O)n1C2)COC(=O)[C@]3(O)CC [Irinotecan maleic acid addition salt, irinotecan maleic acid salt]
- Dissolution of the salt in water at room temperature ([3]; listed as maleic acid): dissolved in water at room temperature

Compound: CCc1c2c(nc3ccc(OC(=O)N4CCC(N5CCCCC5)CC4)cc13)-c1cc3c(c(=O)n1C2)COC(=O)[C@]3(O)CC.O=[N+]([O-])O [Nitric acid addition salt (1), irinotecan nitric acid salt]
- Solution state after storage ([1]; 20 mg/mL aqueous solution): −
- Solution state after storage ([1]; 30 mg/mL aqueous solution): −
- Solution state after storage ([1]; 40 mg/mL aqueous solution): +

Compound: CCc1c2c(nc3ccc(OC(=O)N4CCC(N5CCCCC5)CC4)cc13)-c1cc3c(c(=O)n1C2)COC(=O)[C@]3(O)CC [Irinotecan (7-ethyl-10-[4-(1-piperidino)-1-piperidino]carboxyoxycamptothecin) hydrochloride, reference compound]
- Dissolution of the salt in water at room temperature ([3]; listed as hydrochloric acid, hydrochloride): not dissolved in water at room temperature
- concentration at 3 h ([2]; male, beagle, dog, plasma, oral, 10 mg/kg, peroral, 10 mg/kg as irinotecan, 3 h, mean (n=6) ± SD): 2010 ± 450 ng/mL
- concentration at 4 h ([2]; male, beagle, dog, plasma, oral, 10 mg/kg, peroral, 10 mg/kg as irinotecan, 4 h, mean (n=6) ± SD): 1620 ± 390 ng/mL
- concentration at 6 h ([2]; male, beagle, dog, plasma, oral, 10 mg/kg, peroral, 10 mg/kg as irinotecan, 6 h, mean (n=6) ± SD): 947 ± 363 ng/mL
- concentration at 8 h ([2]; male, beagle, dog, plasma, oral, 10 mg/kg, peroral, 10 mg/kg as irinotecan, 8 h, mean (n=6) ± SD): 538 ± 264 ng/mL
- concentration at 12 h ([2]; male, beagle, dog, plasma, oral, 10 mg/kg, peroral, 10 mg/kg as irinotecan, 12 h, mean (n=6) ± SD): 179 ± 138 ng/mL
- AUC(0-inf) ([2]; male, beagle, dog, plasma, po, 10 mg/kg, peroral, 10 mg/kg as irinotecan, mean ± SD (number of samples in parentheses), read-out: AUC0-inf (area under time-level curve to infinite time)): 11200 ng·h/mL
- Cmax ([2]; male, beagle, dog, plasma, po, 10 mg/kg, peroral, 10 mg/kg as irinotecan, mean ± SD (number of samples in parentheses), read-out: Cmax (maximum plasma level)): 2030 ng/mL
- Tmax ([2]; male, beagle, dog, plasma, po, 10 mg/kg, peroral, 10 mg/kg as irinotecan, mean ± SD (number of samples in parentheses), read-out: Tmax (time to reach maximum plasma level)): 2.83 ± 0.41 h
- BA (bioavailability) ([2]; peroral 10 mg/kg as irinotecan, AUC0-inf oral ÷ AUC0-inf intravenous × 100, listed as irinotecan hydrochloric acid addition salt, hydrochloride): 48.80%
- Plasma irinotecan level (no mean given) ([2]; peroral capsule, 10 mg/kg as irinotecan, 10 min after administration, hydrochloride, 10 mg/kg): —^b) (≧3 Beagles of a group consisting of six beagles exhibited a plasma level of ≦5 ng/mL.)
- Plasma irinotecan level (no mean given) [2, 8]: — (≧3 Beagles of a group consisting of six beagles exhibited a plasma level of ≦5 ng/mL.)

Compound: CCc1c2c(nc3ccc(OC(=O)N4CCC(N5CCCCC5)CC4)cc13)-c1cc3c(c(=O)n1C2)COC(=O)[C@]3(O)CC [Irinotecan methanesulfonic acid addition salt] [irinotecan methanesulfonic acid salt]
- State of the Solution after Day 6 [3]: No crystal deposited
- Dissolution of the salt in water at room temperature [3]: dissolved in water at room temperature
- Plasma irinotecan level (no mean given) ([2]; peroral capsule, 10 mg/kg as irinotecan, 10 min after administration, 10 mg/kg): — (≧3 Beagles of a group consisting of six beagles exhibited a plasma level of ≦5 ng/mL.)
- Plasma irinotecan level (no mean given) [2, 8]: — (≧3 Beagles of a group consisting of six beagles exhibited a plasma level of ≦5 ng/mL.)
- Time after administration at which the plasma level reached the maximum (mean profile, text) [2, 5]: two
- AUC0-inf (area under time-level curve to infinite time) [2, 6]: 17.58 ± 2.08(5)^$ μg · h/mL
- Tmax (time to reach maximum plasma level) [2, 6]: 2.17 ± 0.41(6) h
- AUC0-inf (area under time-level curve to infinite time) [2, 9]: 17.68 µg·h/mL
- Cmax (maximum plasma level) [2, 9]: 3470 ng/mL

Compound: CCc1c2c(nc3ccc(OC(=O)N4CCC(N5CCCCC5)CC4)cc13)-c1cc3c(c(=O)n1C2)COC(=O)[C@]3(O)CC [Irinotecan phosphoric acid addition salt, irinotecan phosphoric acid salt]
- Dissolution of the salt in water at room temperature ([3]; listed as phosphoric acid): dissolved in water at room temperature
